Columns and labels:
[1] = biological target: T1, recombinant calf intestinal alkaline phosphatase (b.IAP), expressed in CHO cells, SEQ ID NO: 10 (Bos taurus, UniProt P19111); test: Kinetic parameters (Km, Ki for L-Phe) of recombinant calf IAP; assay type: biochemical, calf (bovine); conditions: recombinant enzyme; read-out: K1 for L-Phe
T1 construct: codes for a peptide of 533 amino acids in length; made in house; host or cells: Chinese hamster ovary (CHO) cells, ATCC No. CCL61
Description: (§1) Values for Km and Kl for L-Phe were determined for the recombinant enzyme as well as for purified protein from calf intestine as described in Hummer and Millan, supra, and Wilkinson, Biochem. J. 8:324-332 (1961), incorporated herein by reference.

[2] = biological target: purified calf intestinal alkaline phosphatase (b.IAP) from natural sources (calf intestine); test: Kinetic parameters (Km, Ki for L-Phe) of purified natural calf IAP; assay type: biochemical, calf (bovine); conditions: purified natural enzyme; read-out: K1 for L-Phe
Description: as §1

T1 sequence (P19111 20-506 limits assumed): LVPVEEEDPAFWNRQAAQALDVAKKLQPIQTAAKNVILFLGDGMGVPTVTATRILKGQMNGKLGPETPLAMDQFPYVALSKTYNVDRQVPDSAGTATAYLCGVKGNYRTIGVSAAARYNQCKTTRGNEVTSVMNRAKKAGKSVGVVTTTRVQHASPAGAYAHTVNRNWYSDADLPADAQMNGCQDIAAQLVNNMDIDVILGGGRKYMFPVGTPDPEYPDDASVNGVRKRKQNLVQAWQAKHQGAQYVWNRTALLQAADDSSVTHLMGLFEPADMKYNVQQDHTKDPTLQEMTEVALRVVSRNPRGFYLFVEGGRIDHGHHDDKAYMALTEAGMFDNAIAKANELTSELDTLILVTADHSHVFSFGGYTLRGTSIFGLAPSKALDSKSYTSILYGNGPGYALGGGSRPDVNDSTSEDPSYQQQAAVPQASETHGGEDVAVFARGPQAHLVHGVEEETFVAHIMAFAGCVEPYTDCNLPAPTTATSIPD

Work on `N[C@@H](Cc1ccccc1)C(=O)O` [L-Phe] yielded a Ki [1] of 15.2 ± 1.8 mM and a Ki [2] of 11.2 ± 1 mM.

— US5773226A, “Recombinant calf intestinal alkaline phosphatase” (La Jolla Cancer Research Foundation, priority 1995, dated 1998)
